Data as given in patent publication US6737383B1, “Herbicidal oxadiazolidines” (priority 1999, dated 2004).

Assays:
bedstraw = assay: Test B pre/postemergence bedstraw; assay type: in vivo, Galium aparine
Outline: (§1)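 Response is a visual 0-to-10 score relative to untreated plants, where 0 means no effect and 10 means complete control, taken twelve to sixteen days after application. Treatments went onto soil at planting and onto foliage of 1- to 4-leaf plants, using a surfactant-containing non-phytotoxic solvent.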

blackgrass = assay: Test B pre/postemergence blackgrass; assay type: in vivo, Alopecurus myosuroides
Outline: as §1

surinam grass = assay: Test B pre/postemergence surinam grass; assay type: in vivo, Brachiaria decumbens
Outline: as §1

cocklebur = assay: Test B pre/postemergence cocklebur; assay type: in vivo, Xanthium strumarium
Outline: as §1

corn = assay: Test B pre/postemergence corn; assay type: in vivo, Zea mays
Outline: as §1

crabgrass = assay: Test B pre/postemergence crabgrass; assay type: in vivo, Digitaria sanguinalis
Outline: as §1

giant foxtail = assay: Test B pre/postemergence giant foxtail; assay type: in vivo, Setaria faberii
Outline: as §1

morningglory = assay: Test B pre/postemergence morningglory; assay type: in vivo, Ipomoea hederacea
Outline: as §1

pigweed = assay: Test B pre/postemergence pigweed; assay type: in vivo, Amaranthus retroflexus
Outline: as §1

rape = assay: Test B pre/postemergence rape; assay type: in vivo, Brassica napus
Outline: as §1

soybean = assay: Test B pre/postemergence soybean; assay type: in vivo, Glycine max
Outline: as §1

sugar beet = assay: Test B pre/postemergence sugar beet; assay type: in vivo, Beta vulgaris
Outline: as §1

velvetleaf = assay: Test B pre/postemergence velvetleaf; assay type: in vivo, Abutilon theophrasti
Outline: as §1

wheat = assay: Test B pre/postemergence wheat; assay type: in vivo, Triticum aestivum
Outline: as §1

wild oat = assay: Test B pre/postemergence wild oat; assay type: in vivo, Avena fatua
Outline: as §1

purple nutsedge = assay: Test B pre/postemergence purple nutsedge; assay type: in vivo, Cyperus rotundus
Outline: as §1

[1] = Postemergence, Rate 125 g/ha, scale of 0 to 10 where 0 is no effect and 10 is complete control
[2] = Preemergence, Rate 62 g/ha, scale of 0 to 10 where 0 is no effect and 10 is complete control
[3] = Preemergence, Rate 125 g/ha, scale of 0 to 10 where 0 is no effect and 10 is complete control
[4] = Preemergence, Rate 250 g/ha, scale 0 (no effect) to 10 (complete control)
[5] = Postemergence, Rate 62 g/ha, scale 0 to 10, 0 is no effect, 10 is complete control
[6] = Preemergence, Rate 500 g/ha, scale of 0 to 10 where 0 is no effect and 10 is complete control
[7] = Rate 250 g/ha, Postemergence, scale 0 to 10, 0 is no effect, 10 is complete control
[8] = Rate 500 g/ha, Postemergence, scale 0 to 10, 0 is no effect, 10 is complete control

CC(C)N(C(=O)n1oc(=O)n(C[C@H](C)Cl)c1=O)c1ccc(F)cc1F [Compound 714]
Bedstraw plant response rating (bedstraw; [1]): 3 | Bedstraw plant response rating (bedstraw; [2]): 0 | Plant response rating, Bedstraw (bedstraw; [3]): 8 | Bedstraw plant response rating (bedstraw; [4]): 9 | Plant response rating, Blackgrass (blackgrass; [5]): 7 | Blackgrass plant response rating (blackgrass; [1]): 7 | Blackgrass plant response rating (blackgrass; [2]): 7 | Plant response rating, Blackgrass (blackgrass; [3]): 8 | Blackgrass plant response rating (blackgrass; [4]): 9 | Plant response rating, Blackgrass (blackgrass; [6]): 9 | Blackgrass plant response rating (blackgrass; [7]): 6 | Blackgrass plant response rating (blackgrass; [8]): 7 | Plant response rating, B. signalgrass (surinam grass; [5]): 2 | B. signalgrass plant response rating (surinam grass; [1]): 2 | B. signalgrass plant response rating (surinam grass; [2]): 7 | Plant response rating, B. signalgrass (surinam grass; [3]): 9 | B. signalgrass plant response rating (surinam grass; [4]): 10 | Plant response rating, B. signalgrass (surinam grass; [6]): 10 | B. signalgrass plant response rating (surinam grass; [7]): 6 | B. signalgrass plant response rating (surinam grass; [8]): 6 | Plant response rating, Cocklebur (cocklebur; [5]): 0 | Cocklebur plant response rating (cocklebur; [1]): 2 | Cocklebur plant response rating (cocklebur; [2]): 0 | Plant response rating, Cocklebur (cocklebur; [3]): 0 | Cocklebur plant response rating (cocklebur; [4]): 0 | Plant response rating, Cocklebur (cocklebur; [6]): 0 | Cocklebur plant response rating (cocklebur; [7]): 2 | Cocklebur plant response rating (cocklebur; [8]): 3 | Plant response rating, Corn (corn; [5]): 0 | Corn plant response rating (corn; [1]): 0 | Corn plant response rating (corn; [2]): 0 | Plant response rating, Corn (corn; [3]): 0 | Corn plant response rating (corn; [4]): 5 | Corn plant response rating (corn; [7]): 0 | Corn plant response rating (corn; [8]): 0 | Plant response rating, Crabgrass (crabgrass; [5]): 4 | Crabgrass plant response rating (crabgrass; [1]): 9 | Crabgrass plant response rating (crabgrass; [2]): 10 | Plant response rating, Crabgrass (crabgrass; [3]): 10 | Crabgrass plant response rating (crabgrass; [4]): 10 | Crabgrass plant response rating (crabgrass; [7]): 9 | Crabgrass plant response rating (crabgrass; [8]): 9 | Plant response rating, Giant foxtail (giant foxtail; [5]): 6 | Giant foxtail plant response rating (giant foxtail; [1]): 6 | Giant foxtail plant response rating (giant foxtail; [2]): 10 | Plant response rating, Giant foxtail (giant foxtail; [3]): 10 | Giant foxtail plant response rating (giant foxtail; [4]): 10 | Giant foxtail plant response rating (giant foxtail; [7]): 7 | Giant foxtail plant response rating (giant foxtail; [8]): 8 | Plant response rating, Morningglory (morningglory; [5]): 0 | Morningglory plant response rating (morningglory; [2]): 0 | Plant response rating, Morningglory (morningglory; [3]): 2 | Morningglory plant response rating (morningglory; [4]): 0 | Morningglory plant response rating (morningglory; [7]): 2 | Morningglory plant response rating (morningglory; [8]): 2 | Plant response rating, Redroot pigweed (pigweed; [5]): 5 | Redroot pigweed plant response rating (pigweed; [1]): 8 | Redroot pigweed plant response rating (pigweed; [2]): 10 | Plant response rating, Redroot pigweed (pigweed; [3]): 9 | Redroot pigweed plant response rating (pigweed; [4]): 10 | Redroot pigweed plant response rating (pigweed; [7]): 9 | Redroot pigweed plant response rating (pigweed; [8]): 9 | Plant response rating, Rape (rape; [5]): 5 | Rape plant response rating (rape; [1]): 5 | Rape plant response rating (rape; [2]): 2 | Plant response rating, Rape (rape; [3]): 3 | Rape plant response rating (rape; [4]): 6 | Rape plant response rating (rape; [7]): 8 | Rape plant response rating (rape; [8]): 9 | Plant response rating, Soybean (soybean; [5]): 2 | Soybean plant response rating (soybean; [1]): 4 | Soybean plant response rating (soybean; [2]): 0 | Plant response rating, Soybean (soybean; [3]): 0 | Soybean plant response rating (soybean; [4]): 0 | Soybean plant response rating (soybean; [7]): 4 | Soybean plant response rating (soybean; [8]): 3 | Plant response rating, Sugarbeets (sugar beet; [5]): 0 | Sugarbeets plant response rating (sugar beet; [1]): 6 | Sugarbeets plant response rating (sugar beet; [2]): 2 | Plant response rating, Sugarbeets (sugar beet; [3]): 4 | Sugarbeets plant response rating (sugar beet; [4]): 4 | Sugarbeets plant response rating (sugar beet; [7]): 7 | Sugarbeets plant response rating (sugar beet; [8]): 7 | Plant response rating, Velvetleaf (velvetleaf; [5]): 2 | Velvetleaf plant response rating (velvetleaf; [1]): 2 | Velvetleaf plant response rating (velvetleaf; [2]): 6 | Plant response rating, Velvetleaf (velvetleaf; [3]): 5 | Velvetleaf plant response rating (velvetleaf; [4]): 2 | Velvetleaf plant response rating (velvetleaf; [7]): 2 | Velvetleaf plant response rating (velvetleaf; [8]): 3 | Plant response rating, Wheat (wheat; [5]): 0 | Wheat plant response rating (wheat; [1]): 0 | Wheat plant response rating (wheat; [2]): 0 | Plant response rating, Wheat (wheat; [3]): 4 | Wheat plant response rating (wheat; [4]): 6 | Wheat plant response rating (wheat; [7]): 3 | Wheat plant response rating (wheat; [8]): 6 | Plant response rating, Wild oats (wild oat; [5]): 0 | Wild oats plant response rating (wild oat; [1]): 0 | Wild oats plant response rating (wild oat; [2]): 0 | Plant response rating, Wild oats (wild oat; [3]): 4 | Wild oats plant response rating (wild oat; [4]): 6 | Wild oats plant response rating (wild oat; [7]): 4 | Wild oats plant response rating (wild oat; [8]): 9 | Plant response rating, Nutsedge (purple nutsedge; [5]): 0 | Nutsedge plant response rating (purple nutsedge; [1]): 0 | Nutsedge plant response rating (purple nutsedge; [2]): 0 | Plant response rating, Nutsedge (purple nutsedge; [3]): 0 | Nutsedge plant response rating (purple nutsedge; [4]): 0 | Nutsedge plant response rating (purple nutsedge; [7]): 5 | Nutsedge plant response rating (purple nutsedge; [8]): 5
